Measured values reported in patent US20140336182A1, “Aurora Kinase Modulators and Method of Use” (Amgen Inc., priority 2013, published 2014).

System: HeLa cells
Experiment: HeLa cell 24 hr ploidy assay (DNA content)
Type: cell-based
Settings: Homo sapiens, HeLa, HeLa cells, 4N ploidy, average, read-out: 24h_4NPloidy EC50_IP (uM Avg)
Outline: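 DNA content measured by Hoechst 33342 nuclear staining (0.5 ug/ml, 45 min RT) and high-content imaging of fixed HeLa cells after 24 h compound exposure in 0.25% DMSO. Fractions of 4N and >4N cells fitted to dose curves giving EC50 IP, EC50 transit, Max and Min.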

Row | Structure (SMILES) | EC50
1 | Clc1ccc(-c2nnc(Nc3ccc(Sc4ccnc5ccncc45)cc3)c3ccccc23)nc1 [compound 430] | 0.007 µM
2 | Cc1ccc(-c2nnc(Nc3ccc(Oc4ccnc5ccncc45)cc3)c3ccccc23)nc1 [compound 432] | 0.109 µM
3 | Cc1ccc(-c2nnc(Nc3ccc(Sc4ccnc5ccncc45)cc3)c3ccccc23)nc1 [compound 433] | 0.017 µM
4 | COc1cc(OC)c2c(Sc3ccc(Nc4nnc(-c5cc(C)cs5)c5ccccc45)cc3)ccnc2c1 [compound 439] | 0.113 µM
5 | COc1cc(F)cc2nccc(Sc3ccc(Nc4nnc(-c5cc(C)cs5)c5ccccc45)cc3)c12 [compound 440] | 0.029 µM
6 | c1cnc2c(Sc3ccc(Nc4nnc(-c5ccc6c(c5)OCO6)c5ccccc45)cc3)ccnc2c1 [compound 443] | 0.007 µM
7 | FC1(F)Oc2ccc(-c3nnc(Nc4ccc(Sc5ccnc6cccnc56)cc4)c4ccccc34)cc2O1 [compound 444] | 0.024 µM
8 | c1cnc2c(Sc3ccc(Nc4nnc(-c5ccc6c(c5)CCO6)c5ccccc45)cc3)ccnc2c1 [compound 445] | 0.001 µM
9 | Cc1csc(-c2nnc(Nc3ccc(Oc4ccnc5cccnc45)cc3)c3ccccc23)c1 [compound 447] | 0.012 µM
10 | COCCOc1cc(-c2nnc(Nc3ccc(Sc4ccnc5cc(OC)cnc45)cc3)c3ccccc23)ccc1Cl [compound 450] | 0.008 µM
11 | COc1cnc2c(Sc3ccc(Nc4nnc(-c5ccc(C)c(O)c5)c5ccccc45)cc3)ccnc2c1 [compound 451] | < 0.0023 µM
12 | Oc1cc(-c2nnc(Nc3ccc(Sc4ccnc5cccnc45)cc3)c3ccccc23)ccc1Cl [compound 452] | < 0.0023 µM
13 | COc1cnc2c(Sc3ccc(Nc4nnc(-c5ccc6cn[nH]c6c5)c5ccccc45)cc3)ccnc2c1 [compound 453] | < 0.0023 µM
14 | COc1cnc2c(Oc3c(F)cc(Nc4nnc(-c5ccc(Cl)cc5)c5ccccc45)cc3F)ccnc2c1 [compound 454] | 0.008 µM
15 | COc1cnnc(Nc2ccc(Oc3ccnc4cc(OC)cnc34)cc2)c1 [compound 456] | > 1.2 µM
16 | N#Cc1cc2nccc(Sc3ccc(Nc4nnc(-c5ccc6c(c5)OCO6)c5ccccc45)cc3)c2s1 [compound 457] | 0.021 µM
17 | N#Cc1cc2nccc(Sc3ccc(Nc4nnc(-c5ccccc5)c5ccccc45)cc3)c2s1 [compound 458] | 0.148 µM
18 | Cc1csc(-c2nnc(Nc3ccc(Sc4ccnc5cc(C#N)sc45)cc3)c3ccccc23)c1 [compound 459] | 0.048 µM
19 | N#Cc1cc2nccc(Sc3ccc(Nc4nnc(-c5ccc(Cl)cn5)c5ccccc45)cc3)c2s1 [compound 460] | 0.041 µM

Other lines, results leading:

Row | EC50 | Structure (SMILES)
20 | 0.01 µM | COCCOc1ccc2c(Sc3ccc(Nc4nnc(-c5ccc(Cl)cc5)c5ccccc45)cc3)ccnc2c1 [compound 431]
21 | 0.027 µM | COCCOc1ccc2nccc(Sc3ccc(Nc4nnc(-c5ccc(Cl)cc5)c5ccccc45)cc3)c2c1 [compound 434]
22 | 0.009 µM | COc1cc(OC)c2c(Oc3ccc(Nc4nnc(-c5ccc(Cl)cc5)c5ccccc45)cc3)ccnc2c1 [compound 435]
23 | 0.049 µM | COc1cc(OC)c2c(Sc3ccc(Nc4nnc(-c5ccc(Cl)cc5)c5ccccc45)cc3)ccnc2c1 [compound 436]
24 | 0.005 µM | COc1cc(F)cc2nccc(Oc3ccc(Nc4nnc(-c5ccc(Cl)cc5)c5ccccc45)cc3)c12 [compound 437]
25 | 0.016 µM | COc1cc(F)cc2nccc(Sc3ccc(Nc4nnc(-c5ccc(Cl)cc5)c5ccccc45)cc3)c12 [compound 438]
26 | 0.008 µM | COc1cc(OC)c2c(Oc3ccc(Nc4nnc(-c5cc(C)cs5)c5ccccc45)cc3)ccnc2c1 [compound 441]
27 | < 0.0023 µM | COc1cc(F)cc2nccc(Oc3ccc(Nc4nnc(-c5cc(C)cs5)c5ccccc45)cc3)c12 [compound 442]
28 | 0.016 µM | Clc1ccc(-c2nnc(Nc3ccc(Oc4ccnc5cccnc45)cc3)c3ccccc23)cc1 [compound 448]
29 | < 0.0023 µM | COc1cnc2c(Oc3ccc(Nc4nnc(-c5ccc(C)c(O)c5)c5ccccc45)cc3)ccnc2c1 [compound 449]
30 | 0.008 µM | Fc1ccc2c(Oc3ccc(Nc4nnc(-c5ccc(Cl)cc5)c5ccccc45)cc3)ccnc2c1 [compound 455]
